Reference: patent US12146874B2, “Microtentacle imaging in patient tumor samples” (University of Maryland, Baltimore, priority 2014, dated 2024)

Assays:
MDA-436 cells = assay: Automated McTN analysis by confocal microscopy; assay type: cell-based; details: at least 10 random cells
Description: FIG. 24. Automated McTN analysis. […] A gradient vector flow snake algorithm was used to define the cell edges and a local curvature maxima effectively identified McTN ends (yellow diamonds). […] This automated cell shape analysis will also enable calculations of average McTN length, curvature, etc. that will yield more multi-dimensional data for McTN studies.

patient-derived cells = assay: McTN and stem cell responses of patient-derived cells to drugs (Example 4); assay type: cell-based, human; details: concentration listed in Table 2, 30 minutes, vs vehicle 0.1% DMSO
Procedure: Patient-derived cells are treated with either vehicle (0.1% DMSO) or each of the drugs in Table 2 at the indicated concentration for 30 minutes and then analyzed for McTN incidence.

[1] = test system: fresh patient tumor cells and tumorgrafts; assay: McTN drug response of fresh patient samples and tumorgrafts in the microfluidic device (Aim 3b); details: concentration listed in Table 4, 60 minutes, media exchange in microfluidic channels
Procedure: An automated microscope stage will collect images from each channel every 5 minutes across the one hour drug treatment.
Strategy and Analysis: The device prioritized from subaim 2a will be used to analyze fresh patient samples as well as the resulting tumorgrafts from 40 patients during the three years of the project. McTN images collected from each cell sample will be analyzed with a custom MatLab algorithm developed for this assay that can automatically identify McTNs but also score metrics that were previously not possible to measure, such as the average number of McTNs per cell (FIG. 12). […] Drugs will be added by media exchange across the six microfluidic channels at the concentrations listed in Table 4 for 60 minutes, which each affect McTNs in 1 hr.

[2] = test system: nonmetastatic SkBr3 cells; assay: McTN scoring in detached SkBr3 cells, confocal microscopy for tubulin localization; assay type: cell-based, Human; details: Jas 500 nM, Taxol 1.2 μM, McTNs scored blindly, 3 expts
Description: FIG. 4. Targeting cell division can increase McTNs. […] (Bars=mean+S.D from 3 expts. with McTNs scored blindly).
Genetic alterations and chemotherapies that stabilize tubulin can increase McTNs. Actin-disrupting drugs, such as jasplakinolide (Jas) are currently being developed as therapies to reduce tumor cell division and migration (Takeuchi H, Ara G, Sausville E A, Teicher B (1998). Jasplakinolide: interaction with radiation and hyperthermia in human prostate carcinoma and Lewis lung carcinoma. Cancer chemotherapy and pharmacology 42: 491-496). […] Dissemination and growth of cancer cells in metastatic sites. […] We have published that genetic alterations which promote McTNs (FIG. 2B) increase CTC lung retention in living mice (Balzer E M, Whipple R A, Thompson K, Boggs A E, Slovic J, Cho E H et al (2010). c-Src differentially regulates the functions of microtentacles and invadopodia. Oncogene 29: 6402-6408; Matrone M A, Whipple R A, Thompson K, Cho E H, Vitolo M I, Balzer E M et al (2010). Metastatic breast tumors express increased tau, which promotes microtentacle formation and the reattachment of detached breast tumor cells. Oncogene 29: 3217-3227).

Compound	Predicted stemness & McTN effect (patient-derived cells)	Predicted stemness & McTN effect [1]	further results
COc1cc2c(c(OC)c1OC)-c1ccc(OC)c(=O)cc1[C@@H](NC(C)=O)CC2 [Colchicine]	Decrease	Decrease	average number of McTNs per cell (MDA-436 cells; colchicine 50 μM vs vehicle 0.1% DMSO): significantly reduces the average number of McTNs per cell
C=C1C(=O)O[C@@H]2/C=C(\C)CC/C=C(\C)CC[C@@H]12 [Costunolide]	Decrease		
COc1cc(/C=C/C(=O)CC(=O)/C=C/c2ccc(O)c(OC)c2)ccc1O [Curcumin]		Decrease	
CC(=O)O[C@@]12CO[C@@H]1C[C@H](O)[C@@]1(C)C(=O)[C@H](O)C3=C(C)[C@@H](OC(=O)[C@H](O)[C@@H](NC(=O)OC(C)(C)C)c4ccccc4)C[C@@](O)([C@@H](OC(=O)c4ccccc4)[C@H]21)C3(C)C [Docetaxel]	Increase		
O=S(=O)(c1cccc2cnccc12)N1CCCNCC1 [Fasudil]	Increase		
C/C(=C\c1csc(C)n1)[C@@H]1C[C@@H]2O[C@]2(C)CCC[C@H](C)[C@H](O)[C@@H](C)C(=O)C(C)(C)[C@@H](O)CC(=O)N1 [Ixabepilone]	Increase	Increase	
C/C1=C\[C@H](C)C[C@H](C)OC(=O)C[C@H](c2ccc(O)cc2)NC(=O)[C@@H](Cc2c(Br)[nH]c3ccccc23)N(C)C(=O)[C@H](C)NC(=O)[C@@H](C)C1 [Jazplakinolide, Jasplakinolide]	Decrease		levels of McTNs [2]: strongly promote McTNs; levels of McTNs ([2]; listed as Jas): increases levels of McTNs dramatically
O=S(=O)(c1cccc2c(I)cccc12)N1CCCNCC1 [ML-7]	Decrease		
CC(=O)O[C@H]1C(=O)[C@@]2(C)[C@H]([C@H](OC(=O)c3ccccc3)[C@]3(O)C[C@H](OC(=O)[C@H](O)[C@@H](NC(=O)c4ccccc4)c4ccccc4)C(C)=C1C3(C)C)[C@]1(OC(C)=O)CO[C@@H]1C[C@@H]2O [Paclitaxel]	Increase	Increase	levels of McTNs [2]: strongly promote McTNs; levels of McTNs ([2]; listed as Paclitaxel-Taxol): increases levels of McTNs dramatically; average number of McTNs per cell (MDA-436 cells; paclitaxel 1 μM vs vehicle 0.1% DMSO): increases McTNs, but this does not reach significance
CN(C)S(=O)(=O)c1ccc2c(c1)/C(=C/c1cc3c([nH]1)CCCC3)C(=O)N2 [SU6656]	Increase		
CC[C@]1(O)C[C@@H]2CN(CCc3c([nH]c4ccccc34)[C@@](C(=O)OC)(c3cc4c(cc3OC)N(C)[C@H]3[C@@](O)(C(=O)OC)[C@H](OC(C)=O)[C@]5(CC)C=CCN6CC[C@]43[C@@H]65)C2)C1 [Vinblastine]	Decrease	Decrease	
C[C@@H](N)[C@H]1CC[C@H](C(=O)Nc2ccncc2)CC1 [Y-27632]	Increase		
